Assay results taken from ChEMBL document CHEMBL5727130, “Pyridone derivative, pharmaceutical containing the same and methods of use thereof” (2018).

Assay: Inhibition Assay: The TACE inhibition test was carried out by measuring TACE activity in the presence and the absence of the test substance using the thus-obtained TACE as an enzyme, and a fluorescent synthetic substrate Nma(N-methylanthranilic acid)-Leu-Ala-Gln-Ala-Val-Arg-Ser-Ser-Lys(Dnp(dinitrophenyl))-D-Arg-NH2 (SEQ ID NO: 1) including the TACE-cleaved sequence of a membrane-bound TNF as a substrate. The TACE inhibition test method is shown below. Namely, 90 μL of an enzyme solution prepared with an assay buffer A (50 mM tris-hydrochloric acid buffer (pH 7.5) including 200 mM sodium chloride, 5 mM calcium chloride, 10 μM zinc sulfate, and 2 mg/mL bovine serum albumin) and 90 μL of a fluorescent synthetic substrate prepared with an assay buffer B (50 mM tris-hydrochloric acid buffer (pH 7.5) including 200 mM sodium chloride, 5 mM calcium chloride, 10 μM zinc sulfate, and 0.05% PLURONIC F-68) were mixed together, and reacted at 37° C. for 1.5 hours. Enzyme activity was then determined by measuring with a fluorescence intensity meter (Labsystems, Fluoroskan Ascent) at an excitation wavelength of 355 nm and a measurement wavelength of 460 nm.

Row | IC50 | Compound
1 | < 100 nM | Cc1cccn(CC2(c3ccc(Oc4ccc(Cl)cc4)cc3)NC(=O)NC2=O)c1=O (configuration not stated)
2 | < 100 nM | Cc1cccn(CC2(c3ccc(F)c(F)c3)NC(=O)NC2=O)c1=O (configuration not stated)
